According to PMC3842914, “Meleagrin, a New FabI Inhibitor from Penicillium chryosogenum with at Least One Additional Mode of Action” (PLoS ONE, 2013):
In brackets after ≈: the same amount, converted by molar mass. Like-named read-outs stand apart in the source and are kept apart here.

Experiments:
S. aureus FabI = target: T1, S. aureus FabI (Staphylococcus aureus, UniProt Q6GI75); experiment: Fluorescence quenching assay (direct binding); settings: increasing amounts of compound; FabI fluorescence at 307 nm
T1 construct: made in house
T1 sequence (Q6GI75 1-256): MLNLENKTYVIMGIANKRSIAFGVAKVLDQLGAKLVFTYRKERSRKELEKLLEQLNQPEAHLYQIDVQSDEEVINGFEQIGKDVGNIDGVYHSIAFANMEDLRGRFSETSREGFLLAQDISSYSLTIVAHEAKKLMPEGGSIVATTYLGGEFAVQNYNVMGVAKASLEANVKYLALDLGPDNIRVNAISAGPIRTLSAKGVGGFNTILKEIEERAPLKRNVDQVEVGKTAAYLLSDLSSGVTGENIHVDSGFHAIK
Method: Fluorescence spectra were measured using a SHIMADZU fluorescence spectrophotometer (model RF-5310PC). […] Protein quenching was monitored at 25°C by using 5-nm excitation and 5-nm emission wavelength. The excitation wavelength was 280 nm, and the emission spectra were measured between 290 and 430 nm.

E. coli KCTC 1924 = type: cell-based; settings: exposure 4× MIC
Method: (§1) The frequency of spontaneous resistance was determined for S. aureus RN4220, S. aureus KCTC 1916, and E. coli KCTC 1942. […] The organisms were grown to log-phase by dilution of an overnight culture in fresh media and re-incubation at 35°C until the cultures reached a cell density of approximately 10^9 CFU/mL. […] Inocula were determined by applying 100 μl of 10-fold dilutions on solid media without drug. Colony-forming units were counted after 48 h incubation at 35°C. The ratio of the number of colonies on drug-containing plates to that on control plates was calculated as the in vitro frequency of isolation of CFU.

E. coli EW1b(pBAD-fabI) = experiment: Overexpression assay, MIC for fabI-overexpressing E. coli EW1b (pBAD-fabI); type: cell-based; settings: for MIC for fabI-overexpressing E. coli relative to wild-type and vector-containing E. coli: E. coli EW1b (pBAD-fabI) vs E. coli EW1b and E. coli EW1b (pBAD), in the presence of arabinose; for MIC: Escherichia coli
Method: (§2) Whole-cell antimicrobial activity was determined by broth microdilution as described previously. The test strains except for S. pneumoniae were grown to mid-log phase in Mueller–Hinton broth and diluted 1,000-fold in the same medium. Cells (10^5/mL) were inoculated into Mueller–Hinton broth and dispensed at 0.2 mL/well into a 96-well microtiter plate. S. pneumoniae was grown in tryptic soy broth supplemented with 5% sheep blood. MICs were determined in triplicate by serial 2-fold dilutions of test compounds. […] Bacterial growth was determined by measuring the absorption at 650 nm by using a microtiter ELISA reader.
(§3) An overexpression assay using S. aureus RN4220, S. aureus RN4220 (pE194), and S. aureus RN4220 (pE194-fabI) was conducted to perform target validation of FabI inhibitors as described previously. Additionally, both fabI- and fabK-overexpressing E. coli were constructed to test a multitarget effect of the compounds. The wild-type fabI gene from the genomic DNA of E. coli W3110 was amplified by PCR by using the primers 5′-[…]-3′ and 5′-[…]-3′. The wild-type fabK gene from the genomic DNA of S. pneumoniae KCTC 5412 was amplified by PCR by using the primers 5′-[…]-3′ and 5′-[…] […]-3′. The resulting products were cloned into the pBAD-TOPO TA expression vector (Invitrogen, Carlsbad, CA, USA) to yield the pBAD-fabI and pBAD-fabK recombinant plasmids, which placed the expression of the genes fabI and fabK, respectively, under the control of the arabinose promoter. Recombinant pBAD-fabI and pBAD-fabK were then introduced into the pump-negative (tolC) E. coli EW1b via electroporation to generate E. coli EW1b (pBAD-fabI) and E. coli EW1b (pBAD-fabK), respectively.

E. coli EW1b = experiment: Overexpression assay, MIC for pump-negative (tolC) E. coli EW1b; type: cell-based; settings: Escherichia coli
Method: as §2, §3

S. pneumoniae KCTC 3932 = experiment: Inhibition of macromolecular biosynthesis (radiolabeled precursor incorporation) in S. pneumoniae; type: cell-based, Streptococcus pneumoniae; settings: drugs at 2 times the MIC
Method: (§4) To monitor the effects of compound 1 on lipid, DNA, RNA, protein, and cell wall biosynthesis, its effects on the incorporation of [1-^14C] acetate (50 mCi/mmol), [2-^14C] thymidine (59.8 mCi/mmol), [U-^14C] uridine (539 mCi/mmol), L-[U-^14C] leucine (306 mCi/mmol) or L-[U-^14C] isoleucine (329 mCi/mmol), and N-acetyl-D-[1-^14C] glucosamine (58.1 mCi/mmol) into S. aureus and S. pneumoniae were measured as described previously. S. aureus was exponentially grown to an A650 of 0.2 in Mueller–Hinton broth. S. pneumoniae was grown in tryptic soy broth supplemented with 5% sheep blood. […] An equal volume of DMSO solvent was added to the untreated control. After incubation with the radiolabeled precursors at 37°C for 1 h, followed by centrifugation, the cell pellets were washed twice with PBS buffer. After acetate incorporation, the total cellular lipids were extracted with chloroform-methanol-water. The incorporated radioactivity in the chloroform phase was measured by scintillation counting. For the other precursors, incorporation was terminated by adding 10% (w/v) TCA and cooling on ice for 20 min. The precipitated material was collected on Whatman GF/C glass microfiber filters, washed with TCA and ethanol, dried, and counted using a scintillation counter. The total counts incorporated at 1 h of incubation without inhibitors ranged from >7,000 for [U-^14C] uridine to <13,000 for [1-^14C] acetate. […] In all experiments, known antibacterial agents were included as positive controls.

E. coli EW1b(pBAD-fabK) = experiment: Overexpression assay, MIC for fabK-overexpressing E. coli EW1b (pBAD-fabK); type: cell-based; settings: Escherichia coli
Method: as §2, §3

S. aureus RN4220 [1] = type: cell-based, Staphylococcus aureus; settings: exposure 4× MIC
Method: as §1

S. aureus KCTC 1916 = type: cell-based, Staphylococcus aureus; settings: exposure 4× MIC
Method: as §1

S. aureus RN4220 [2] = experiment: Inhibition of macromolecular biosynthesis (radiolabeled precursor incorporation) in S. aureus; type: cell-based, Staphylococcus aureus; settings: drugs at 2 times the MIC
Method: as §4

E. coli EW1b(pBAD) = experiment: Overexpression assay, MIC for vector-containing E. coli EW1b (pBAD); type: cell-based; settings: Escherichia coli
Method: as §2, §3

[3] = MIC against other gram-positive bacteria; type: cell-based; settings: Staphylococcus aureus
Method: as §2

[4] = read-out: MIC E. coli EW1b(pBAD-fabI) (+) Ara
[5] = read-out: MIC E. coli EW1b(pBAD-fabI) (−) Ara
[6] = read-out: MIC E. coli EW1b (+) Ara
[7] = read-out: MIC E. coli EW1b (−) Ara
[8] = read-out: MIC E. coli EW1b(pBAD-fabK) (+) Ara
[9] = read-out: MIC E. coli EW1b(pBAD-fabK) (−) Ara
[10] = read-out: MIC E. coli EW1b(pBAD) (+) Ara
[11] = read-out: MIC E. coli EW1b(pBAD) (−) Ara

Row | SMILES | Fluorescence quenching of S. aureus FabI (S. aureus FabI) | Frequency of resistance (E. coli KCTC 1924) | MIC for fabI-overexpressing E. coli relative to wild-type and vector-containing E. coli (E. coli EW1b(pBAD-fabI)) [fold] | MIC (E. coli EW1b(pBAD-fabI); [4]) [µg/mL] | MIC (E. coli EW1b(pBAD-fabI); [5]) [µg/mL] | MIC (E. coli EW1b; [6]) [µg/mL] | MIC (E. coli EW1b; [7]) [µg/mL] | MIC (E. coli EW1b(pBAD-fabK); [8]) [µg/mL] | MIC (E. coli EW1b(pBAD-fabK); [9]) [µg/mL] | Frequency of resistance (S. aureus RN4220 [1]) | Frequency of resistance (S. aureus KCTC 1916) | Inhibition of precursor incorporation, [1-14C] Acetate (S. aureus RN4220 [2]) [%] | MIC (E. coli EW1b(pBAD); [10]) [µg/mL] | MIC (E. coli EW1b(pBAD); [11]) [µg/mL] | also measured
1 | C=CC(C)(C)C12C=C(O)C(=O)N3/C(=C/c4cnc[nH]4)C(=O)NC31N(OC)c1ccccc12 (stereo not shown) [Compound 1, meleagrin] | same pattern as compound 5 | <6.7×10^−9 | 4 | 128 (≈ 295 µM) | 32 (≈ 73.8 µM) | 32 (≈ 73.8 µM) | 32 (≈ 73.8 µM) | 32 (≈ 73.8 µM) | 32 (≈ 73.8 µM) | <1.62×10^−10 | <1.03×10^−10 | 62 | 32 (≈ 73.8 µM) | 32 (≈ 73.8 µM) | Inhibition of precursor incorporation, L-[U-14C] Isoleucine (S. pneumoniae KCTC 3932): 9%; Inhibition of precursor incorporation, N-Acetyl-D-[1-14C] Glucosamine (S. pneumoniae KCTC 3932): 3%; Inhibition of precursor incorporation, [1-14C] Acetate (S. pneumoniae KCTC 3932): 65%; Inhibition of precursor incorporation, [2-14C] Thymidine (S. pneumoniae KCTC 3932): 15%; Inhibition of precursor incorporation, [U-14C] Uridine (S. pneumoniae KCTC 3932): 2%; Inhibition of precursor incorporation, L-[U-14C] Isoleucine (S. aureus RN4220 [2]): 6%; Inhibition of precursor incorporation, N-Acetyl-D-[1-14C] Glucosamine (S. aureus RN4220 [2]): 25%; Inhibition of precursor incorporation, [2-14C] Thymidine (S. aureus RN4220 [2]): 13%; Inhibition of precursor incorporation, [U-14C] Uridine (S. aureus RN4220 [2]): 17%
2 | C=CC(C)(C)C12C=C(OC)C(=O)N3/C(=C/c4cnc[nH]4)C(=O)N(C)C31N(OC)c1ccccc12 (stereo not shown) [Compound 5, O,N^14-dimethylmeleagrin] | fluorescence intensity decreased gradually | <6.7×10^−9 | 4 | 64 (≈ 139 µM) | 16 (≈ 34.7 µM) | 16 (≈ 34.7 µM) | 16 (≈ 34.7 µM) | 16 (≈ 34.7 µM) | 16 (≈ 34.7 µM) | <1.62×10^−10 | <1.03×10^−10 |  | 16 (≈ 34.7 µM) | 16 (≈ 34.7 µM) | MIC ([3]; other gram-positive bacteria incl. MRSA and QRSA strains, read-out: MIC): 8 to 16 µg/mL (≈ 17.3 to 34.7 µM)
3 | C=CC(C)(C)C12C=C(O)C(=O)N3/C(=C/c4cnc[nH]4)C(=O)NC31Nc1c(Br)cccc12 (stereo not shown) [Compound 7] | did not exhibit such an effect |  |  |  |  |  |  |  |  |  |  |  |  |  | 
4 | Oc1cc(Cl)ccc1Oc1ccc(Cl)cc1Cl [Triclosan, reference compound] | resulted in fluorescence quenching |  |  | > 0.08 | 0.002 (≈ 0.00691 µM) | 0.002 (≈ 0.00691 µM) | 0.002 (≈ 0.00691 µM) | > 0.08 | 0.002 (≈ 0.00691 µM) |  |  | 87 | 0.002 (≈ 0.00691 µM) | 0.002 (≈ 0.00691 µM) | 
5 | C=CC(C)(C)C12C=C(OC)C(=O)N3/C(=C/c4cnc[nH]4)C(=O)N(C)C31Nc1ccccc12 (stereo not shown) [Compound 6, O,N^14-dimethylglandicolin] |  |  |  |  |  |  |  |  |  |  |  |  |  |  | MIC [3]: 8 to 16 µg/mL (≈ 18.5 to 37.1 µM)
